According to patent publication US20080175800A1, “USE OF SPECIFIC MENTHYL 3-OXOCARBOXYLIC ACID ESTERS AS PHYSIOLOGICALLY ACTIVE COOLING SUBSTANCES” (SYMRISE GmbH & Co. KG, priority 2007, published 2008):

Tests used:
[1] = Skin-cooling characteristics, application site forearm; type: in vivo; details: forearm of human test subjects; compared with L-menthyl lactate (Frescolat ML)
[2] = Sensory evaluation in confectioner's fondant by a panel of experts (cooling action); type: in vivo; details: 0.05 wt. % in confectioner's fondant; for cooling action: scale from 1 (no cooling action) to 9 (extremely strong cooling action)
Experimental: The compounds from Examples 1 and 2 were tested for their sensory properties, in particular their cooling action. To this end, they were dissolved, in each case in a specific final concentration, in a mass prepared from sucrose (saccharose) and water (confectioner's fondant, supplier Nordzucker AG, Nordstemmen) and evaluated by a panel of experts. Sensory impressions were rated and the cooling action was assessed on a scale from 1 (no cooling action) to 9 (extremely strong cooling action).

Row | Structure (SMILES) | skin intensity of cooling [1] | onset and duration of cooling action ([2]; compared with Example 1) | cooling action [2]
1 | CCC(=O)CC(=O)O[C@@H]1C[C@H](C)CC[C@H]1C(C)C [Example 2, (L)-menthyl 3-oxo-pentanoate] | overall weaker intensity of cooling | slower onset but longer lasting than Example 1 | 5-6
2 | CC(=O)CC(=O)O[C@@H]1C[C@H](C)CC[C@H]1C(C)C [Example 1, (L)-menthyl 3-oxo-butyrate] | overall weaker intensity of cooling | – | 5-6
